Measurements as given in PubChem BioAssay (NCI).
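Where inhibition never reached the appropriate level, the endpoint shown equals the highest concentration tested. Otherwise, values were interpolated linearly from a five-concentration, 48-hour dose response in 96-well plates. GI50 is the concentration that inhibits growth by half. TGI marks complete inhibition of growth.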

What was measured:
Test in all cases: DTP human tumour cell line panel, 48 h
[1] = test system: SK-OV-3 ovarian
[2] = test system: SR leukemia
[3] = test system: LOX IMVI melanoma
[4] = test system: U251 CNS
[5] = test system: TK-10 renal
[6] = test system: BT-549 breast
[7] = test system: OVCAR-5 ovarian
[8] = test system: CAKI-1 renal
[9] = test system: 786-0 renal
[10] = test system: SK-MEL-2 melanoma
[11] = test system: A498 renal
[12] = test system: SF-268 CNS
[13] = test system: HCT-15 colon
[14] = test system: NCI/ADR-RES ovarian
[15] = test system: NCI-H460 lung
[16] = test system: SF-295 CNS
[17] = test system: HCT-116 colon
[18] = test system: PC-3 prostate
[19] = test system: M14 melanoma
[20] = test system: RXF 393 renal
[21] = test system: OVCAR-4 ovarian
[22] = test system: UACC-62 melanoma
[23] = test system: SK-MEL-5 melanoma
[24] = test system: KM12 colon
[25] = test system: NCI-H226 lung
[26] = test system: SNB-19 CNS
[27] = test system: HOP-62 NSCLC
[28] = test system: OVCAR-3 ovarian
[29] = test system: RPMI-8226 leukemia
[30] = test system: SNB-75 CNS
[31] = test system: K-562 leukemia
[32] = test system: HL-60(TB) leukemia
[33] = test system: DU-145 prostate
[34] = test system: T-47D breast
[35] = test system: MDA-MB-231 breast
[36] = test system: EKVX NSCLC
[37] = test system: A549 NSCLC
[38] = test system: CCRF-CEM leukemia
[39] = test system: SF-539 CNS
[40] = test system: SW-620 colon
[41] = test system: MCF7 breast
[42] = test system: NCI-H522 lung
[43] = test system: MOLT-4 leukemia
[44] = test system: HCC-2998 colon
[45] = test system: SK-MEL-28 melanoma
[46] = test system: COLO 205 colon
[47] = test system: ACHN renal
[48] = test system: HT29 colon
[49] = test system: MDA-MB-435
[50] = test system: UACC-257 melanoma
[51] = test system: HS 578T breast
[52] = test system: OVCAR-8 ovarian
[53] = test system: SN12C renal
[54] = test system: NCI-H23 lung
[55] = test system: MALME-3M melanoma
[56] = test system: UO-31 renal
[57] = test system: HOP-92 NSCLC
[58] = test system: IGROV1 ovarian

## COc1cc([N+](=O)[O-])c2ncccc2c1[N+](=O)[O-]
[1]
  GI50: 12.6 µM
  TGI: 25.4 µM
[2]
  GI50: 3.33 µM
  TGI: > 100 µM
[3]
  GI50: 2.31 µM
  TGI: 8.29 µM
[4]
  GI50: 4.45 µM
  TGI: 16.6 µM
[5]
  GI50: 7.04 µM
  TGI: 19.6 µM
[6]
  GI50: 7.62 µM
  TGI: 20.2 µM
[7]
  GI50: 16.4 µM
  TGI: 31.1 µM
[8]
  GI50: 1.65 µM
  TGI: 4 µM
[9]
  GI50: 10.7 µM
  TGI: 23.3 µM
[10]
  GI50: 4.17 µM
  TGI: 12.3 µM
[11]
  GI50: 12.3 µM
  TGI: 32 µM
[12]
  GI50: 3.72 µM
  TGI: 15.3 µM
[13]
  GI50: 5.39 µM
  TGI: 21.6 µM
[14]
  GI50: 2.8 µM
  TGI: 10.8 µM
[15]
  GI50: 6.07 µM
  TGI: 24.6 µM
[16]
  GI50: 4.51 µM
  TGI: 14.3 µM
[17]
  GI50: 3.47 µM
  TGI: 11.9 µM
[18]
  GI50: 4.18 µM
  TGI: 17 µM
[19]
  GI50: 4.24 µM
  TGI: 15.8 µM
[20]
  GI50: 4.37 µM
  TGI: 17.5 µM
[21]
  GI50: 1.82 µM
  TGI: 3.37 µM
[22]
  GI50: 12 µM
  TGI: 25.1 µM
[23]
  GI50: 12.6 µM
  TGI: 25.3 µM
[24]
  GI50: 2.98 µM
  TGI: 10.5 µM
[25]
  GI50: 15.3 µM
  TGI: 31.5 µM
[26]
  GI50: 15.9 µM
  TGI: 30.8 µM
[27]
  GI50: 11.7 µM
  TGI: 24.8 µM
[28]
  GI50: 2.68 µM
  TGI: 6.72 µM
[29]
  GI50: 6.15 µM
  TGI: 26.5 µM
[30]
  GI50: 3.77 µM
  TGI: 18 µM
[31]
  GI50: 3.97 µM
  TGI: > 100 µM
[32]
  GI50: 3.39 µM
  TGI: > 100 µM
[33]
  GI50: 4.39 µM
  TGI: 15.8 µM
[34]
  GI50: 3.1 µM
  TGI: 11.7 µM
[35]
  GI50: 11.6 µM
  TGI: 24.8 µM
[36]
  GI50: 15.4 µM
  TGI: 29.4 µM
[37]
  GI50: 17.8 µM
  TGI: 34.5 µM
[38]
  GI50: 3.44 µM
  TGI: 28.6 µM
[39]
  GI50: 3.61 µM
  TGI: 13.6 µM
[40]
  GI50: 1.82 µM
  TGI: 3.44 µM
[41]
  GI50: 3.26 µM
  TGI: 32.1 µM
[42]
  GI50: 1.13 µM
  TGI: 2.62 µM
[43]
  GI50: 4.92 µM
  TGI: > 100 µM
[44]
  GI50: 4.82 µM
  TGI: 17.8 µM
[45]
  GI50: 13.2 µM
  TGI: 27.1 µM
[46]
  GI50: 10.1 µM
  TGI: 22.9 µM
[47]
  GI50: 4.75 µM
  TGI: 16.5 µM
[48]
  GI50: 2.28 µM
  TGI: 5.52 µM
[49]
  GI50: 3.9 µM
  TGI: 15.1 µM
[50]
  GI50: 13.5 µM
  TGI: 31.2 µM
[51]
  GI50: 3.87 µM
  TGI: 29.4 µM
[52]
  GI50: 4.33 µM
  TGI: 15.9 µM
[53]
  GI50: 12.5 µM
  TGI: 25.3 µM
[54]
  GI50: 3.91 µM
  TGI: 16.1 µM

## C/C(Nc1ccc(Cl)cc1Cl)=C1/CCOC1=O
[2]
  TGI: > 100 µM
[3]
  TGI: > 100 µM
[4]
  TGI: 66.5 µM
[5]
  TGI: > 100 µM
[6]
  TGI: 63.3 µM
[9]
  TGI: > 100 µM
[11]
  TGI: > 100 µM
[12]
  TGI: 92.8 µM
[13]
  TGI: > 100 µM
[14]
  TGI: > 100 µM
[15]
  TGI: > 100 µM
[16]
  TGI: 54 µM
[17]
  TGI: > 100 µM
[18]
  TGI: > 100 µM
[20]
  TGI: 39.8 µM
[21]
  TGI: > 100 µM
[22]
  TGI: > 100 µM
[23]
  TGI: > 100 µM
[24]
  TGI: > 100 µM
[25]
  TGI: > 100 µM
[26]
  TGI: 67.1 µM
[27]
  TGI: 70.8 µM
[55]
  TGI: > 100 µM
[28]
  TGI: > 100 µM
[29]
  TGI: > 100 µM
[30]
  TGI: 66.1 µM
[31]
  TGI: > 100 µM
[32]
  TGI: > 100 µM
[33]
  TGI: > 100 µM
[34]
  TGI: > 100 µM
[35]
  TGI: 46.3 µM
[56]
  TGI: > 100 µM
[36]
  TGI: 73.9 µM
[37]
  TGI: > 100 µM
[38]
  TGI: > 100 µM
[57]
  TGI: 51.8 µM
[39]
  TGI: 89.9 µM
[40]
  TGI: > 100 µM
[41]
  TGI: > 100 µM
[42]
  TGI: > 100 µM
[43]
  TGI: > 100 µM
[44]
  TGI: > 100 µM
[45]
  TGI: > 100 µM
[46]
  TGI: > 100 µM
[47]
  TGI: > 100 µM
[48]
  TGI: > 100 µM
[49]
  TGI: > 100 µM
[58]
  TGI: > 100 µM
[50]
  TGI: > 100 µM
[51]
  TGI: 73.8 µM
[52]
  TGI: > 100 µM
[53]
  TGI: > 100 µM
[54]
  TGI: > 100 µM
